# Data as given in US20220387457A1 (Qlaris Bio, Inc., priority 2020, published 2022).
# “Also recorded” adds a separate entry of the source. Read-outs that look alike come from different tables or passages of the source.
# Columns and labels:
# [1] = biological target: T1, human Kir6.2/SUR2B KATP channel (Homo sapiens, UniProt O60706); assay: FLIPR membrane potential assay in HEK-Kir6.2/SUR2B cells; assay type: cell-based; details: for hyperpolarization / activation of Kir6.2/SUR2B KATP channels: up to 100 μM
# T1 construct: expressed in transfected cells
# Experimental: The ability of CKLP1 and the active moiety of CKLP1, leveromakalim, to pharmacologically modulate the function of the human ATP-sensitive potassium channel comprised of Kir6.2 (encoded by the human gene KCNJ11) coupled to the sulfonylurea receptor SUR2B (encoded by the human gene ABCC9) was studied.
# Compounds were dissolved up to 10 mM stock solution in DMSO. Ten-point concentration response curves were generated at 100× concentration in 100% DMSO. Compound source plates were made by serially diluting 10 mM compound stocks in DMSO to generate a progressive semilog dilution schema. Dose response stock plate (10 μL) were then transferred into assay plates containing 90 μL of assay buffer, generating 10× working concentrations. Final assay test concentration ranges of 100 μM to 0.003 μM with a final DMSO concentration of 1.0%.
# Human embryonic kidney (HEK) cells stably expressing human Kir6.2/SUR2B KATP channel subunits were plated onto 96 well, black poly-d-lysine (PDL)-coated microplates and maintained in growth media the day prior to use for experiments. Media was removed from the plates and 90 μL of 1× stock of the membrane potential sensitive fluorescent dye FMP-Blue resuspended in assay buffer (EBSS—in mM: NaCl 145, KCl 2, Glucose 5, CaCl2) 1.8, MgCl2 0.8, HEPES 10, pH 7.4 with NaOH, 290-300 mOSm) was added to the cells. Cells were incubated at room temperature, protected from light, for 45-60 minutes. After the incubation period, cell, test compound and glibenclamide plates were loaded onto the fluorescence plate reader (FLIPR-TETRA™) and the scanning initiated. The FLIPR measured a 10 second baseline and then added 10 μL of 10× the final desired concentration of test agent. Changes in fluorescence were monitored for an additional 5 minutes. After the 5-minute compound incubation, 10 μL of the receptor inhibitor glibenclamide was added to the cell plate (10 uM final glibenclamide concentration). Changes in fluorescence was then monitored for an additional 5 minutes.
# Compound modulation of Kir6.2/SUR2B KATP channel mediated changes in cellular membrane potential was determined as follows. After the administration of compound, FMP fluorescence was monitored for a 5-minute period. The following parameters were recorded and exported from the FLIPR: the average relative fluorescence response (RFU) of 5 images taken at the 5-minute point in the assay with the average background EBSS buffer response subtracted. […] Test agent effect was calculated as % activation using the following formula: […]
# Curve fits were performed in GraphPad Prism graphing software using a 4-parameter, variable slope fit equation.
# [2] = Concentration of CKLP1 and levcromakalim in ocular and systemic tissues of hound dogs; assay type: in vivo, hound dog; details: for concentration at 23 h: hound, dog
# Experimental: After blood collection for pharmacokinetic studies, bilateral ocular treatment with CKLP1 (10 mM) continued in the hound dogs for 4-5 additional days.
# For ocular tissue collection, eyes were enucleated and aqueous humor, vitreous humor, trabecular meshwork, optic nerve, ciliary body, iris, retina and cornea were isolated and stored at −80° C. While collecting tissues during necropsy, portions of heart, kidney, lung, brain, liver and skeletal muscle were immediately frozen for pharmacodynamics analysis, while the remaining tissue samples were immediately fixed in 10% neutral buffered formalin.
# Immediately prior to analysis, tissues were thawed and their weight was measured. PBS was added at double the tissue volume homogenized in a rotor stator homogenizer for 30 seconds. […] Detection was accomplished using positive electrospray ionization with multiple-reaction monitoring (MRM). […] Data were acquired and analyzed using Waters MassLynx v4.1 software.
# [3] = Plasma pharmacokinetics, 28-day topical ophthalmic dosing in beagle dogs; details: dog, in vivo; for concentration at 336 h: both sexes
# Experimental: In the study, dogs (3 males and 3 females) received bilateral daily topical administration of 40 μL/eye of 2.0%, 4.0%, or 8.0% as measured in mg/mL (equivalent to 0.8, 1.6, or 3.2 mg CKLP1 per eye) of CKLP1 in phosphate buffered saline. Based on an average male dog weight of 7.9 kg at the start of the study, these doses were equivalent to 0.20 mg/kg, 0.41 mg/kg, or 0.81 mg/kg and based on an average female dog weight of 6.0 kg at the start of the study, these doses were equivalent to 0.27 mg/kg, 0.53 mg/kg, or 1.07 mg/kg. Blood was collected for toxicokinetic analysis pre-dose and at 1, 2, 4, 8, 12, and 24 hours post dosing on days 1 and 28. In addition, 2 animals of each gender were allowed 336 hours (14 days) of recovery time following the final dose, at which point final blood samples were obtained.
# [4] = aqueous humor, 23 hours after last dose, topical 10 mM CKLP1 12-13 days, two animals, read-out: concentration in aqueous humor
# [5] = ciliary body, 23 hours after last dose, topical 10 mM CKLP1 12-13 days, two animals, read-out: concentration in ciliary body
# [6] = cornea, 23 hours after last dose, topical 10 mM CKLP1 12-13 days, two animals, read-out: concentration in cornea
# [7] = heart, 23 hours after last dose, topical 10 mM CKLP1 12-13 days, read-out: concentration in heart
# [8] = iris, 23 hours after last dose, topical 10 mM CKLP1 12-13 days, two animals, read-out: concentration in iris
# [9] = kidney, 23 hours after last dose, topical 10 mM CKLP1 12-13 days, read-out: concentration in kidney
# [10] = optic nerve, 23 hours after last dose, topical 10 mM CKLP1 once daily 12-13 days, two animals, read-out: concentration in optic nerve
# [11] = retina, 23 hours after last dose, topical 10 mM CKLP1 12-13 days, two animals, read-out: concentration in retina
# [12] = trabecular meshwork, 23 hours after last dose, topical 10 mM CKLP1 12-13 days, two animals, read-out: concentration in trabecular meshwork
# [13] = vitreous humor, 23 hours after last dose, topical 10 mM CKLP1 12-13 days, two animals, read-out: concentration in vitreous humor
# [14] = beagle, terminal elimination half-life
# [15] = female, beagle, topical or ocular, 0.27 mg/kg
# [16] = female, beagle, topical or ocular, 1.07 mg/kg
# [17] = female, beagle, topical or ocular, […]
# [18] = male, beagle, topical or ocular, 0.2 mg/kg
# [19] = male, beagle, topical or ocular, 0.41 mg/kg
# [20] = male, beagle, topical or ocular, 0.81 mg/kg
# [21] = female, beagle, topical or ocular, 3.2 mg
# [22] = male, beagle, topical or ocular, 1.6 mg
# T1 sequence (O60706 1-1549 isoform O60706-2): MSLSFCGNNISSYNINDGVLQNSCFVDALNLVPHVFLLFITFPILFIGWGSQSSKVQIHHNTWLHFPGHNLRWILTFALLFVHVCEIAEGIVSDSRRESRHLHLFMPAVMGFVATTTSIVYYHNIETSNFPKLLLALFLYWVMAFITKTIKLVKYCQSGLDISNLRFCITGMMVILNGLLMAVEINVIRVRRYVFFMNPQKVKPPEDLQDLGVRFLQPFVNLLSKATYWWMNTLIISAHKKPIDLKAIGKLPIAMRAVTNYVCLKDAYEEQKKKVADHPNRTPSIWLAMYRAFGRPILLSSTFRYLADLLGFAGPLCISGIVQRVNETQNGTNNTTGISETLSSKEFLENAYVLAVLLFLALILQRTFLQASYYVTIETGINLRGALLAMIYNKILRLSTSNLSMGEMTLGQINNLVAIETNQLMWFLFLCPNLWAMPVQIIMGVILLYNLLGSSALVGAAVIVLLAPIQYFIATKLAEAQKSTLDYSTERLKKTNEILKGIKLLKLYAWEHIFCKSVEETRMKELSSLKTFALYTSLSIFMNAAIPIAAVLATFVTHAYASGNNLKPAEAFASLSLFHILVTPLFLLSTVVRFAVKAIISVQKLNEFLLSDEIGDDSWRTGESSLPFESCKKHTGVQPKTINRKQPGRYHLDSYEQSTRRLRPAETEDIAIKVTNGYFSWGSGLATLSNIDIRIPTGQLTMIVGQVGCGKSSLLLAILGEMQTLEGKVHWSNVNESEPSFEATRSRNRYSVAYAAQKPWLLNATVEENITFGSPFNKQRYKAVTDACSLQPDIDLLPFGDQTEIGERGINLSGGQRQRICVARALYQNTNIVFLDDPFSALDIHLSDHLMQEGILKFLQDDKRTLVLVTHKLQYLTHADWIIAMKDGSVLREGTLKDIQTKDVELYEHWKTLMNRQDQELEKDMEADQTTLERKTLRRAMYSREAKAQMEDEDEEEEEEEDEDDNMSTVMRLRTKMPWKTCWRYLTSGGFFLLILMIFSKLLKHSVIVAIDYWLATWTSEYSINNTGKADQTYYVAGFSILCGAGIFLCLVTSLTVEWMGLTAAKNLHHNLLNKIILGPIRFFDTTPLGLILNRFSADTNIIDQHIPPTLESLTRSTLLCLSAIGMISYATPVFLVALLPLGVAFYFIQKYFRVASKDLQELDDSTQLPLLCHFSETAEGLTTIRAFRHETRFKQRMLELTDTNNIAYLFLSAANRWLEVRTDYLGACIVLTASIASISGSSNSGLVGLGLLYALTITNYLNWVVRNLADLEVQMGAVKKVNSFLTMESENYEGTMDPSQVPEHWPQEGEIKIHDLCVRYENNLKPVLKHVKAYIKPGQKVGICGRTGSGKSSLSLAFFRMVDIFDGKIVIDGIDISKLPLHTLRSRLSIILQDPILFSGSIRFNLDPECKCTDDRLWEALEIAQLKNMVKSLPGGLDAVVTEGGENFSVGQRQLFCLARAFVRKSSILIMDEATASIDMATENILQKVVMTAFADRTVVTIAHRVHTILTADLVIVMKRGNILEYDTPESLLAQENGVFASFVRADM
# T1 sequence (Q14654 whole entry partner): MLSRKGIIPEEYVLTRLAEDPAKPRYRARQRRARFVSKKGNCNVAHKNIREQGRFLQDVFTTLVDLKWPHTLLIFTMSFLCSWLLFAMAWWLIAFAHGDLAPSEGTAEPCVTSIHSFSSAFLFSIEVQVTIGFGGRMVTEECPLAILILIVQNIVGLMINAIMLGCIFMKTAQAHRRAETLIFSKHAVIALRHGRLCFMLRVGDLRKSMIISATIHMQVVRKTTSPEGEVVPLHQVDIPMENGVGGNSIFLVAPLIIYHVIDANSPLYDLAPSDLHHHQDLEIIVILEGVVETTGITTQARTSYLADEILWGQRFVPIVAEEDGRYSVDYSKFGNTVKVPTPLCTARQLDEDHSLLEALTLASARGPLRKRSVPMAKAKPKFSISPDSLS
compound,measurement,setting,value
CC1(C)Oc2ccc(C#N)cc2[C@@H](N2CCCC2=O)[C@@H]1OP(=O)(O)O [CKLP1],EC50,"[1]; ability to modulate KATP channel, HEK-Kir6.2/SUR2B cells, normalized to 100 uM pinacidil, read-out: EC50 (μM) (mean ± SEM)",> 100 µM
same,Emax at 100 µM,"[1]; read-out: maximal response, % activation",9.4%
same,hyperpolarization / activation of Kir6.2/SUR2B KATP channels,[1],did not result in any significant hyperpolarization; also recorded: failed to produce any significant activation
same,concentration in lung,"[2]; 23 hours after last dose, topical 10 mM CKLP1 12-13 days",undetected
same,concentration at 23 h,[2]; [4],10.2 ± 14.4 ng/g
same,concentration at 23 h,[2]; [5],10.3 ± 8.1 ng/g
same,concentration at 23 h,[2]; [6],31.3 ± 10.8 ng/g
same,concentration at 23 h,[2]; [7],3.7 ± 0.5 ng/g
same,concentration at 23 h,[2]; [8],4.8 ± 1.1 ng/g
same,concentration at 23 h,[2]; [9],2.7 ± 2.9 ng/g
same,concentration at 23 h,[2]; [10],63.8 ± 63.1 ng/g
same,concentration at 23 h,[2]; [11],6.2 ± 3.8 ng/g
same,concentration at 23 h,[2]; [12],170 ± 21.6 ng/g
same,concentration at 23 h,[2]; [13],24.4 ± 2.4 ng/g
same,concentration in urine,[2]; topical 10 mM CKLP1 12-13 days,88.0 ± 134.9 ng/mL
same,half-life,"[3]; beagle, mean T1/2 of CKLP1",3.32 to 6.18 h
same,half-life,[3]; [14],3 to 6 h
same,concentration at 336 h,[3]; beagle,< 2 ng/mL
same,"predose levels of CKLP1 on day 28, times lower than peak plasma concentrations","[3]; both, beagle",16-25 times
same,accumulation of CKLP1 on day 28 relative to day 1,[3],no accumulation
same,time of Cmax of CKLP1,[3],1 to 2 h
same,AUC0-last,[3]; [15],545 ng·h/mL
same,AUC(0-inf),[3]; [15],660 ng·h/mL
same,Cmax,[3]; [15],80.2 ng/mL
same,Tmax,[3]; [15],2 h
same,t1/2,[3]; [15],3.68 h
same,AUC(0-t),"[3]; female, beagle, topical or ocular, 0.27 mg/kg, AUC0-last",496 ng·h/mL
same,Cmax,"[3]; female, beagle, topical or ocular, 0.27 mg/kg, Cmax",55.5 ng/mL
same,half-life,"[3]; female, beagle, topical or ocular, 0.27 mg/kg, t1/2",4.12 h
same,AUC0-last,[3]; [16],1200 ng·h/mL
same,AUC(0-inf),[3]; [16],1860 ng·h/mL
same,Cmax,[3]; [16],139 ng/mL
same,Tmax,[3]; [16],2 h
same,t1/2,[3]; [16],5.15 h
same,AUC(0-t),"[3]; female, beagle, topical or ocular, 1.07 mg/kg, AUC0-last",1480 ng·h/mL
same,Cmax,"[3]; female, beagle, topical or ocular, 1.07 mg/kg, Cmax",156 ng/mL
same,half-life,"[3]; female, beagle, topical or ocular, 1.07 mg/kg, t1/2",4.92 h
same,AUC0-last,[3]; [17],1750 ng·h/mL
same,Tmax,[3]; [17],2 h
same,half-life,"[3]; female, beagle, topical or ocular, […], t1/2",6.18 h
same,AUC0-last,[3]; [18],272 ng·h/mL
same,AUC(0-inf),[3]; [18],299 ng·h/mL
same,Cmax,[3]; [18],47.0 ng/mL
same,Tmax,[3]; [18],1 h
same,t1/2,[3]; [18],3.44 h
same,AUC(0-t),"[3]; male, beagle, topical or ocular, 0.2 mg/kg, AUC0-last",231 ng·h/mL
same,Cmax,"[3]; male, beagle, topical or ocular, 0.2 mg/kg, Cmax",36.5 ng/mL
same,half-life,"[3]; male, beagle, topical or ocular, 0.2 mg/kg, t1/2",3.69 h
same,AUC0-last,[3]; [19],381 ng·h/mL
same,AUC(0-inf),[3]; [19],571 ng·h/mL
same,Cmax,[3]; [19],57.3 ng/mL
same,Tmax,[3]; [19],1 h
same,t1/2,[3]; [19],3.32 h
same,AUC(0-t),"[3]; male, beagle, topical or ocular, 0.41 mg/kg, AUC0-last",520 ng·h/mL
same,Cmax,"[3]; male, beagle, topical or ocular, 0.41 mg/kg, Cmax",73.7 ng/mL
same,half-life,"[3]; male, beagle, topical or ocular, 0.41 mg/kg, t1/2",4.26 h
same,AUC0-last,[3]; [20],1260 ng·h/mL
same,AUC(0-inf),[3]; [20],1580 ng·h/mL
same,Tmax,[3]; [20],2 h
same,t1/2,[3]; [20],5.08 h
same,AUC(0-t),"[3]; male, beagle, topical or ocular, 0.81 mg/kg, AUC0-last",1520 ng·h/mL
same,Cmax,"[3]; male, beagle, topical or ocular, 0.81 mg/kg, CKLP1, Male, topical 8.0% CKLP1 daily, Day 1, read-out: Cmax",166 ng/mL
same,Cmax,"[3]; male, beagle, topical or ocular, 0.81 mg/kg, CKLP1, Male, topical 8.0% CKLP1 daily, Day 28, read-out: Cmax",147 ng/mL
same,half-life,"[3]; male, beagle, topical or ocular, 0.81 mg/kg, t1/2",4.82 h
same,Cmax,"[3]; male, beagle, topical or ocular, 8 %, day 28, males, read-out: mean Cmax at NOAEL",147 ng/mL
same,AUC(0-t),"[3]; male, beagle, topical or ocular, 8.0%, day 28, males, read-out: mean AUC Tlast at NOAEL",1260 ng·h/mL
"CC1(C)Oc2ccc(C#N)cc2[C@@H](N2CCCC2=O)[C@@H]1O [Levcromakalim, levcromakalim, reference compound]",hyperpolarization reversed by coadministration of glibenclamide,[1]; glibenclamide 10 μM,reversed
same,hyperpolarization / activation of Kir6.2/SUR2B KATP channels,[1],concentration-dependent hyperpolarization
same,concentration at 23 h,[2]; [4],1.1 ± 1.5 ng/mL
same,concentration at 23 h,[2]; [5],< 1 ng/g
same,concentration at 23 h,[2]; [6],1.4 ± 0.3 ng/g
same,concentration at 23 h,[2]; [7],0.9 ± 0.8 ng/g
same,concentration at 23 h,[2]; [8],< 1 ng/g
same,concentration at 23 h,[2]; [9],0.8 ± 1.2 ng/g
same,concentration at 23 h,"[2]; lung, 23 hours after last dose, topical 10 mM CKLP1 12-13 days, read-out: concentration in lung",0.3 ± 0.4 ng/g
same,concentration at 23 h,[2]; [10],< 1 ng/g
same,concentration at 23 h,[2]; [11],< 1 ng/g
same,concentration at 23 h,[2]; [12],2 ± 0.5 ng/g
same,concentration at 23 h,[2]; [13],< 1 ng/g
same,concentration in urine,[2]; topical 10 mM CKLP1 12-13 days,3.7 ± 4.5 ng/mL
same,half-life,"[3]; beagle, mean T1/2 of levcromakalim",2.06 to 4.9 h
same,half-life,[3]; [14],2 to 5 h
same,concentration at 336 h,[3]; beagle,< 0.499 ng/mL
same,AUC(0-inf),[3]; [15],96.8 ng·h/mL
same,AUC(0-inf),[3]; [21],304 ng·h/mL
same,t1/2,[3]; [21],2.73 h
same,half-life,"[3]; female, beagle, topical or ocular, 3.2 mg, t1/2",4.9 h
same,AUC(0-inf),[3]; [17],131 ng·h/mL
same,AUC(0-inf),"[3]; male, beagle, topical or ocular",111 ng·h/mL
same,AUC(0-inf),[3]; [22],185 ng·h/mL
same,Tmax,[3]; [22],4 h
same,AUC(0-inf),"[3]; male, beagle, topical or ocular, 3.2 mg",371 ng·h/mL
